Holding throughout (type): functional, cell-based
For one experiment, the system named is HT-1080. As to the kind of experiment: Cytotoxicity against human HT1080 cells after 48 hrs by MTT assay. Particulars: HT-1080, 48 h.
A further experiment has as its system HCT-116. As to the kind of experiment: Cytotoxicity against human HCT116 cells after 48 hrs by MTT assay. Particulars: HCT-116, 48 h.
In the next experiment the test system is HepG2. As to the kind of experiment: Cytotoxicity against human HepG2 cells after 48 hrs by MTT assay. The settings on record: HepG2, 48 h. In general terms: Tetrazolium dyes change colour on reduction, which living cells bring about.
In the next experiment the test system is A549. Nature of the experiment: Cytotoxicity against human A549 cells after 48 hrs by MTT assay. Particulars: A549, 48 h.
For a further experiment, the system named is MCF7. Nature of the experiment: Cytotoxicity against human MCF7 cells after 48 hrs by MTT assay. The settings on record: MCF7, 48 h.
In another experiment the test system is HeLa. Nature of the experiment: Cytotoxicity against human HeLa cells after 48 hrs by MTT assay.

Some results are limits rather than exact numbers.

Usually IC50 stands for the point on the concentration scale where inhibition reaches its midpoint. Low readings indicate inhibition by little substance, high ones a need for much substance.

For `COc1ccc(CNC(=O)N[C@H]2[C@H](O[C@H]3CC[C@@]4(C)C(=CC[C@H]5[C@@H]6C[C@@H]7O[C@]8(CC[C@@H](C)CO8)[C@@H](C)[C@@H]7[C@@]6(C)CC[C@@H]54)C3)O[C@H](CO)[C@@H](O)[C@@H]2O)cc1`, the IC50 in the experiment on HT-1080, in the experiment with HCT-116, in the experiment with HepG2, with A549, in the experiment on MCF7 and in the experiment on HeLa was greater than 50 µM each time.
For `COc1ccc(/C=C/C(=O)N[C@H]2[C@H](O[C@H]3CC[C@@]4(C)C(=CC[C@H]5[C@@H]6C[C@@H]7O[C@]8(CC[C@@H](C)CO8)[C@@H](C)[C@@H]7[C@@]6(C)CC[C@@H]54)C3)O[C@H](CO)[C@@H](O)[C@@H]2O)cc1OC`, the IC50 is greater than 50 µM in the experiment with HT-1080; 29 µM with HCT-116; 25.9 µM in the experiment with HepG2; 30.3 µM in the experiment on A549; 31.3 µM in the experiment on MCF7; 26.1 µM with HeLa.
Turning to `COc1ccc(/C=C/C(=O)N[C@H]2[C@H](O[C@H]3CC[C@@]4(C)C(=CC[C@H]5[C@@H]6C[C@@H]7O[C@]8(CC[C@@H](C)CO8)[C@@H](C)[C@@H]7[C@@]6(C)CC[C@@H]54)C3)O[C@H](CO)[C@@H](O)[C@@H]2O)c(OC)c1`, the 50% inhibitory concentration (IC50) was 5.8 µM with HT-1080; 42.9 µM with HCT-116; 41.3 µM in the experiment on HepG2; 27.1 µM in the experiment on A549; 26.7 µM with MCF7; 22.3 µM with HeLa.
Regarding `COc1ccc(/C=C/C(=O)N[C@H]2[C@H](O[C@H]3CC[C@@]4(C)C(=CC[C@H]5[C@@H]6C[C@@H]7O[C@]8(CC[C@@H](C)CO8)[C@@H](C)[C@@H]7[C@@]6(C)CC[C@@H]54)C3)O[C@H](CO)[C@@H](O)[C@@H]2O)cc1`, the IC50 in the experiment with HT-1080 is 3.5 µM; in the experiment with HCT-116 it was 29.5 µM; in the experiment with HepG2, 30.7 µM; with A549 it was 24.4 µM; with MCF7, 0.5 µM; in the experiment on HeLa it was 6.1 µM.
With `C[C@@H]1CC[C@@]2(OC1)O[C@H]1C[C@H]3[C@@H]4CC=C5C[C@@H](O[C@@H]6O[C@H](CO)[C@@H](O)[C@H](O)[C@H]6NC(=O)NCc6ccc(F)cc6)CC[C@]5(C)[C@H]4CC[C@]3(C)[C@H]1[C@@H]2C`, the IC50 in the experiment on HT-1080 is 42 µM; in the experiment with HCT-116 it was greater than 50 µM; in the experiment on HepG2, greater than 50 µM; in the experiment with A549 it was greater than 50 µM; with MCF7, greater than 50 µM; in the experiment on HeLa, greater than 50 µM.
Take `C[C@@H]1CC[C@@]2(OC1)O[C@H]1C[C@H]3[C@@H]4CC=C5C[C@@H](O[C@@H]6O[C@H](CO)[C@@H](O)[C@H](O)[C@H]6NC(=O)/C=C/c6ccccc6[N+](=O)[O-])CC[C@]5(C)[C@H]4CC[C@]3(C)[C@H]1[C@@H]2C`: the IC50 in the experiment with HT-1080 is 36.5 µM; in the experiment on HCT-116, greater than 50 µM; with HepG2, greater than 50 µM; in the experiment with A549, greater than 50 µM; in the experiment with MCF7, greater than 50 µM; in the experiment on HeLa it was greater than 50 µM.
With `C[C@@H]1CC[C@@]2(OC1)O[C@H]1C[C@H]3[C@@H]4CC=C5C[C@@H](O[C@@H]6O[C@H](CO)[C@@H](O)[C@H](O)[C@H]6NC(=O)NC6CC6)CC[C@]5(C)[C@H]4CC[C@]3(C)[C@H]1[C@@H]2C`, the IC50 in the experiment with HT-1080 was greater than 50 µM; in the experiment with HCT-116, greater than 50 µM; in the experiment with HepG2, greater than 50 µM; in the experiment on A549 it was greater than 50 µM; in the experiment on MCF7, greater than 50 µM; with HeLa it was 43.5 µM.
Take `C[C@@H]1CC[C@@]2(OC1)O[C@H]1C[C@H]3[C@@H]4CC=C5C[C@@H](O[C@@H]6O[C@H](CO)[C@@H](O)[C@H](O)[C@H]6NC(=S)N/N=C/c6ccccc6)CC[C@]5(C)[C@H]4CC[C@]3(C)[C@H]1[C@@H]2C`: the IC50 with HT-1080 is greater than 50 µM; with HCT-116, 40 µM; with HepG2 it was 29.5 µM; in the experiment on A549, 49.7 µM; with MCF7, 48.2 µM; in the experiment on HeLa, 36.2 µM.
Consider `C[C@@H]1CC[C@@]2(OC1)O[C@H]1C[C@H]3[C@@H]4CC=C5C[C@@H](O[C@@H]6O[C@H](CO)[C@@H](O)[C@H](O)[C@H]6NC(=O)/C=C/c6ccc(F)cc6)CC[C@]5(C)[C@H]4CC[C@]3(C)[C@H]1[C@@H]2C`, for which the IC50 amounted to 34.9 µM in the experiment with HT-1080; 35 µM with HCT-116; 39.8 µM in the experiment on HepG2; 33.8 µM in the experiment on A549; 21.2 µM in the experiment with MCF7; 26.9 µM in the experiment on HeLa.
For the molecule `O=c1[nH]cc(F)c(=O)[nH]1` [FLUOROURACIL], the IC50 with HT-1080 came to 15.2 µM; in the experiment with HCT-116, 36.4 µM; in the experiment with HepG2, 51.5 µM; with MCF7, 78.6 µM; in the experiment with HeLa, 63.4 µM.
With `C[C@@H]1CC[C@@]2(OC1)O[C@H]1C[C@H]3[C@@H]4CC=C5C[C@@H](O[C@@H]6O[C@H](CO)[C@@H](O)[C@H](O)[C@H]6NC(=O)/C=C/c6cccc(Cl)c6)CC[C@]5(C)[C@H]4CC[C@]3(C)[C@H]1[C@@H]2C`, the IC50 in the experiment on HT-1080, in the experiment on HCT-116, in the experiment with HepG2, in the experiment on A549, with MCF7 and with HeLa was greater than 50 µM in each case.
`COc1ccc(OC)c(/C=C/C(=O)N[C@H]2[C@H](O[C@H]3CC[C@@]4(C)C(=CC[C@H]5[C@@H]6C[C@@H]7O[C@]8(CC[C@@H](C)CO8)[C@@H](C)[C@@H]7[C@@]6(C)CC[C@@H]54)C3)O[C@H](CO)[C@@H](O)[C@@H]2O)c1`: the IC50 was greater than 50 µM in the experiment with HT-1080; 35.6 µM in the experiment on HCT-116; 31.7 µM in the experiment on HepG2; 47.8 µM with A549; greater than 50 µM in the experiment with MCF7; 32.2 µM with HeLa.
Consider `CC(=O)N[C@H]1[C@H](O[C@H]2CC[C@@]3(C)C(=CC[C@H]4[C@@H]5C[C@@H]6O[C@]7(CC[C@@H](C)CO7)[C@@H](C)[C@@H]6[C@@]5(C)CC[C@@H]43)C2)O[C@H](CO)[C@@H](O)[C@@H]1O`, for which the IC50 in the experiment with HT-1080, in the experiment with HCT-116, in the experiment with HepG2 and in the experiment with A549 was greater than 50 µM in each case.
On to `C[C@@H]1CC[C@@]2(OC1)O[C@H]1C[C@H]3[C@@H]4CC=C5C[C@@H](O[C@@H]6O[C@H](CO)[C@@H](O)[C@H](O)[C@H]6NC(=O)NCc6ccccc6)CC[C@]5(C)[C@H]4CC[C@]3(C)[C@H]1[C@@H]2C`, for which the IC50 in the experiment with HT-1080 is greater than 50 µM; in the experiment with HCT-116, greater than 50 µM; in the experiment on HepG2 it was greater than 50 µM; in the experiment with A549, 28.5 µM; in the experiment with MCF7, 23.9 µM; in the experiment on HeLa, 27 µM.
Regarding `C[C@@H]1CC[C@@]2(OC1)O[C@H]1C[C@H]3[C@@H]4CC=C5C[C@@H](O[C@@H]6O[C@H](CO)[C@@H](O)[C@H](O)[C@H]6NC(=S)N/N=C/c6cc(C(F)(F)F)cc(C(F)(F)F)c6)CC[C@]5(C)[C@H]4CC[C@]3(C)[C@H]1[C@@H]2C`, the IC50 in the experiment on HT-1080, in the experiment with HCT-116, in the experiment on HepG2, in the experiment on A549, in the experiment with MCF7 and with HeLa was greater than 50 µM throughout.
With `COc1ccccc1/C=C/C(=O)N[C@H]1[C@H](O[C@H]2CC[C@@]3(C)C(=CC[C@H]4[C@@H]5C[C@@H]6O[C@]7(CC[C@@H](C)CO7)[C@@H](C)[C@@H]6[C@@]5(C)CC[C@@H]43)C2)O[C@H](CO)[C@@H](O)[C@@H]1O`, the IC50 with HT-1080 amounted to 4.3 µM; in the experiment with HCT-116, 38.9 µM; with HepG2, 29.5 µM; in the experiment on A549, 23.1 µM; in the experiment with MCF7, 23.1 µM; with HeLa it was 27.5 µM.
For the molecule `COc1ccc(/C=N/NC(=S)N[C@H]2[C@H](O[C@H]3CC[C@@]4(C)C(=CC[C@H]5[C@@H]6C[C@@H]7O[C@]8(CC[C@@H](C)CO8)[C@@H](C)[C@@H]7[C@@]6(C)CC[C@@H]54)C3)O[C@H](CO)[C@@H](O)[C@@H]2O)cc1`, the IC50 is greater than 50 µM in the experiment on HT-1080; 38.2 µM in the experiment with HCT-116; 28.2 µM with HepG2; 37.3 µM in the experiment with A549; greater than 50 µM with MCF7; 34.8 µM in the experiment on HeLa.
`COc1cc(/C=C/C(=O)N[C@H]2[C@H](O[C@H]3CC[C@@]4(C)C(=CC[C@H]5[C@@H]6C[C@@H]7O[C@]8(CC[C@@H](C)CO8)[C@@H](C)[C@@H]7[C@@]6(C)CC[C@@H]54)C3)O[C@H](CO)[C@@H](O)[C@@H]2O)cc(OC)c1OC`: the IC50 in the experiment on HT-1080, in the experiment on HCT-116, in the experiment with HepG2, with A549, with MCF7 and with HeLa was greater than 50 µM throughout.
In the case of `C[C@@H]1CC[C@@]2(OC1)O[C@H]1C[C@H]3[C@@H]4CC=C5C[C@@H](O[C@@H]6O[C@H](CO)[C@@H](O)[C@H](O)[C@H]6NC(=O)NN6CCCCC6)CC[C@]5(C)[C@H]4CC[C@]3(C)[C@H]1[C@@H]2C`, the IC50 with HT-1080 is 35.1 µM; in the experiment with HCT-116 it was greater than 50 µM; with HepG2 it was greater than 50 µM; with A549 it was greater than 50 µM; in the experiment on MCF7 it was greater than 50 µM; in the experiment on HeLa, greater than 50 µM.
On to `CCCCCCCNC(=O)N[C@H]1[C@H](O[C@H]2CC[C@@]3(C)C(=CC[C@H]4[C@@H]5C[C@@H]6O[C@]7(CC[C@@H](C)CO7)[C@@H](C)[C@@H]6[C@@]5(C)CC[C@@H]43)C2)O[C@H](CO)[C@@H](O)[C@@H]1O`, for which the IC50 in the experiment with HT-1080 is 43 µM; in the experiment on HCT-116, greater than 50 µM; in the experiment with HepG2, greater than 50 µM; with A549 it was greater than 50 µM; with MCF7 it was greater than 50 µM; with HeLa it was greater than 50 µM.

These data come from ChEMBL document CHEMBL2203140, “Syntheses and structure-activity relationship studies of N-substituted-β-D-glucosaminides as selective cytotoxic agents” (Bioorg Med Chem Lett, 2012).
